# Measured values from patent publication US20180360799A1, “Nitrofuran Derivatives That Induce Apoptosis in Breast Cancer Cells by Activating Protein Expression” (Oklahoma Medical Research Foundation, priority 2015, published 2018).
# Assays:
# HCC-1143 cells = assay: Cell viability, CellTiter-Glo, HCC-1143; assay type: cell-based; details: Homo sapiens, HCC1143, 72 h; Table 2; cancer cell viability, 3 d treatment; read-out: HCC-1143 IC50
# Description: Given the known functions of CHOP in ER stress-induced apoptosis^16, 17 and in regulating cancer cell death,^6, 19, 20 the inventor investigated whether compound 1 affects the viability of TNBC cells. Three human TNBC cell lines, HCC-1806, HCC-1143, and HCC-38, were treated with doses of 1 ranging from 0.125 μM to 20 μM and their viability was assessed using the CellTiter-Glo assay, which measures intracellular ATP levels.
# HCC-1806, HCC-1143, or HCC-38 cells were seeded at 3×10^3 cells/well in a 384-well plate and treated with compounds at the indicated concentrations. After 3 d treatment, the medium was aspirated and 20 μL/well of CellTiter-Glo reagent was added. Cell viability was measured with an EnVision multilabel plate reader. The IC50 value for cell viability of each compound was calculated with GraphPad Prism (La Jolla, Calif., US).
# HCC-1806 cells = assay: Live-cell phase-contrast microscopy of HCC-1806 cells; assay type: cell-based, human; details: near confluent HCC-1806, 10 μM, 24 h
# Description: FIG. 2A is an image showing apoptosis of HCC-1806 cells after treatment with a 5-nitrofuran-2-amide derivative compound 3d (above). Cells were treated with 3d (10 μM) for the indicated times, and cleavage of caspase-3 was determined by Western blotting. α-Tubulin was used as a loading control. The data shown are representative of 3 independent studies. FIGS. 2B and 2C are live-cell phase-contrast images (magnification 10×) showing treatment with DMSO and (10 μM) 5-nitrofuran-2-amide derivative compound 3d respectively for 24 h. To determine whether the reduction in TNBC cell viability by the 5-nitrofuran-2-amide derivatives was due to the induction of apoptosis, the inventor analyzed cleavage of caspase-3, a critical executioner of apoptosis, in HCC-1806 cells treated with compound 3d. […] To confirm this, HCC-1806 cells were cultured to near confluence and treated with 10 μM 3d or DMSO for 24 h and then imaged by live-cell phase-contrast microscopy.
# p-eIF2α = assay: eIF2α phosphorylation by Western blotting; assay type: cell-based, human; details: 10 μM, indicated times
# Description: FIG. 3D is an image showing ATF4 and p-EIF2α protein levels after treatment with a 5-nitrofuran-2-amide derivative compound 3d. Cells were treated with compound 3d (10 μM) for the indicated times, and ATF4 and p-eIF2a protein levels were analyzed by Western blotting. α-Tubulin was used as a loading control. The data shown are representative of 3 independent studies.
# Prolonged or severe ER stress activates CHOP expression primarily through the PERK branch of the unfolded protein response, although the IRE1α and ATF6 branches also contribute.^5, 18 The 5-nitrofuran-2-amide derivatives could induce CHOP expression by acting as an ER stressor that activates all three branches of unfolded protein response or by preferentially activating a select branch of unfolded protein response. To distinguish between these possibilities, the inventor investigated which branches of the unfolded protein response were affected by compound 3d. Activation of the PERK pathway by ER stress leads to phosphorylation of eIF2α, followed by activation of the transcription and translation of the transcription factor ATF4, a 5′-upstream ORF-containing gene, and ATF4-mediated CHOP expression.^5, 22 To determine whether the PERK pathway is involved in compound 3d-mediated CHOP induction, ATF4 expression and eIF2a phosphorylation in HCC-1806 cells by qRT-PCR and Western blotting were analyzed. […]
# [1] = system: ER stress response elements (ERSE)-Luc reporter; assay: ERSE-Luc reporter assay in HEK293 cells; assay type: cell-based, human; details: 10 μM, 24 h
# Description: FIG. 3G is a graph showing HEK293 cells stably expressing CHOP-Luc, ERSE-Luc, or UPRE-luc reporters were treated with DMSO, a 5-nitrofuran-2-amide derivative, or tunicamycin. HEK293 cells stably expressing CHOP-Luc, ERSE-Luc, or UPRE-luc reporters were treated with DMSO, compound 3d (10 μM), or Tm (1 μg/mL) for 24 h, and luciferase activity was measured using the Bright-Glo assay. Results are the means of 4 replicate wells and are representative of 3 independent experiments.
# The inventor next asked whether the IRE1α and ATF6 branches of the unfolded protein response were also activated by compound 3d treatment of TNBC cells. […] XBP1 mRNA splicing, as measured by XBP1s levels, increased only slightly in the first 24 h after compound 3d treatment of HCC-1806 cells (from 11% of total XBP1 at 0 h to 15˜20% at 2˜24 h). […] Next, it was determined whether compound 3d activates the ATF6 pathway by evaluating its effect on the activity of an ER stress response elements (ERSE)-Luc reporter stably established in HEK293 cell line.
# The HEK293T CHOP reporter cell line (CHOP-Luc) was previously described.^21 HEK293T cells were stably transfected with ERSE-Luciferase^25 and UPRE-Luciferase^23 reporters to generate ERSE-Luc and UPRE-Luc reporter cell lines, respectively. […] Luciferase activity was measured with a Bright-Glo kit 24 h later.
smiles,measurement,setting,value
CC1CCN(c2ccc(NC(=O)c3ccc([N+](=O)[O-])o3)cc2)CC1 [Compound 3d],IC50,HCC-1143 cells,2100 nM
same,cell death seen by phase-contrast imaging,HCC-1806 cells,few cells were observed
same,phosphorylation of eIF2α,p-eIF2α,substantially increased the phosphorylation of eIF2a
same,"effect on ERSE-driven luciferase activity, in words",[1],no significant effect
